According to patent US7734426B2 (priority 1999, dated 2010):
Entries after “also recorded” stand apart in the source; their conditions may differ. Where no end group is shown, it is not given here.

Test system: NG-108-15 Cells
Type: cell-based
Conditions: not given

Molecule	Effect	Onset Time [s]	effect on the AP	inhibit repetitive firing
NC1=N[C@H](O)[C@H]2[C@H]3O[C@]4(O)O[C@@H]([C@@H](O)[C@@]2(N1)[C@@H]4O)[C@]3(O)CO [tetrodotoxin]	Na^+ channel	<60	affected the AP	tetrodotoxin*
C=C[C@H]1C[N@@]2CC[C@H]1C[C@H]2[C@H](O)c1ccnc2ccc(OC)cc12 [quinine]	non-specific K^+ channel	<60		quinine*
N=C(N)NC(=O)c1nc(Cl)c(N)nc1N [amiloride]	L-type Ca^2+ channel	<60		amiloride*
Charybdotoxin	Kca “BK”-type channel	<60		Charybdotoxin*
COC(=O)C1=C(C)NC(C)=C(C(=O)OC)C1c1ccccc1[N+](=O)[O-] [nifedipine]				nifedipine*
C[C@@H]1O[C@@H](O[C@H]2C[C@@H](O)[C@]3(CO)[C@H]4[C@H](O)C[C@]5(C)[C@@H](C6=CC(=O)OC6)CC[C@]5(O)[C@@H]4CC[C@]3(O)C2)[C@H](O)[C@H](O)[C@H]1O [ouabain]	Na^+—Ca^2+ pump; also recorded: inhibition	<60		ouabain*
C=C(C=O)C[C@@H]1C[C@H](O)[C@]2(C)O[C@@H]3C[C@@H]4O[C@@H]5C[C@]6(C)O[C@]7(C)CC[C@@H]8O[C@@H]9C[C@]%10(C)O[C@@H]%11C(C)=CC(=O)O[C@H]%11C[C@H]%10O[C@H]9C[C@@H](C)[C@H]8O[C@H]7C[C@H]6O[C@H]5C/C=C\[C@H]4O[C@H]3C[C@H]2O1 [brevetoxin]	Na^+ channel	<60		brevetoxin*
C[N+](C)(C)CCOC(N)=O [carbachol]	muscarinic receptor	<60		carbachol*
COc1ccc(CCN(C)CCCC(C#N)(c2ccc(OC)c(OC)c2)C(C)C)cc1OC (stereo not drawn) [verapamil]	L-type Ca^2+ channel	<60		verapamil*

Test system: CNS stem cells
Conditions: cited from earlier work

Molecule	neuronal differentiation, % of the cells [%]
platelet-derived growth factor [PDGF]	90

Test system: CA1 region of hippocampal slices
Conditions: cited from earlier work

Molecule	effect on synaptic transmission
O=CC[C@@H](O)[C@H](O)[C@H](O)CO [2-DG, 2-deoxy-D-glucose]	reversibly suppresses synaptic transmission

Test system: hippocampal interneurons
Conditions: cited from earlier work

Molecule	effect on action potential frequency / currents
CCK-8S (DYMGWMDF; not fully specified; UniProt P06307 96-103, looked up)	increased action potential frequency or generated inward currents

Test system: CA1 pyramidal cells in hippocampal slices
Conditions: cited from earlier work

Molecule	changes in the action potential
C[N+](C)(C)CCOC(N)=O [carbachol]	several reversible changes in the action potential
